Reference: PMC11289455 (Scientific Reports, 2024)
Where two headings read alike, the source gives them in different places.

Key:
[1] = target: T1, A2A (adenosine 2A receptor) (Homo sapiens, UniProt P29274); assay: SafetyScreen44: A2A; format: binding
T1 construct: purchased Eurofins Cerep SafetyScreen44

[2] = target: T2, α1A (alpha-1A adrenergic receptor) (Homo sapiens, UniProt P35348); assay: SafetyScreen44: α1A; format: binding
T2 construct: purchased Eurofins Cerep SafetyScreen44
T2 sequence (P35348 1-466): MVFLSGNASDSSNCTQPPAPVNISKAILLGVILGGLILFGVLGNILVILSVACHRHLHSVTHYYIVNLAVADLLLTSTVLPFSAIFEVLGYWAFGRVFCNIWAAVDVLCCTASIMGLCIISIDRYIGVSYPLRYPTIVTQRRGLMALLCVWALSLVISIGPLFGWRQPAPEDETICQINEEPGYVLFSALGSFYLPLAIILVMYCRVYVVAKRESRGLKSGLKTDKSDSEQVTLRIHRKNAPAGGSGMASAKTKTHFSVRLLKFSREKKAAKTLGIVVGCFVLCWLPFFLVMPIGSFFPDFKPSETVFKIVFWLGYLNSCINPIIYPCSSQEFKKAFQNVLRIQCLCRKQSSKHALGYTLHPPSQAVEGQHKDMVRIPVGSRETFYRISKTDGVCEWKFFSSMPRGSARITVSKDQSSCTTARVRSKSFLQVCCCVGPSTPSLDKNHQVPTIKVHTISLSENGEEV

[3] = target: T3, CCK1 (CCKA) (cholecystokinin 1 receptor) (Homo sapiens, UniProt P32238); assay: SafetyScreen44: CCK1 (CCKA); format: binding
T3 construct: purchased Eurofins Cerep SafetyScreen44
T3 sequence (P32238 1-428): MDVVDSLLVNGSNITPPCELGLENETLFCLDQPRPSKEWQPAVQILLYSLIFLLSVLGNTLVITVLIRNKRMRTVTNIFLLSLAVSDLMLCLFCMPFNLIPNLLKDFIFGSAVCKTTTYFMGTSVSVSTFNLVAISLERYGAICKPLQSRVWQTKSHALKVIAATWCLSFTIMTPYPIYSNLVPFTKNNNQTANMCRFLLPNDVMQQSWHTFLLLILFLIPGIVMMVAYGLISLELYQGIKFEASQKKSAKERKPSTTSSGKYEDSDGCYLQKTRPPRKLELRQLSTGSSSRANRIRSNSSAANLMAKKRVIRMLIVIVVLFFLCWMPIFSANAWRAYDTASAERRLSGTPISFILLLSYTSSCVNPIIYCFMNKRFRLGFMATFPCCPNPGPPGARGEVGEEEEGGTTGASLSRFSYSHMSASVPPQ

[4] = target: T4, 5-HT2A (serotonin 2A receptor) (Homo sapiens, UniProt P28223); assay: SafetyScreen44: 5-HT2A; format: binding
T4 construct: purchased Eurofins Cerep SafetyScreen44

[5] = Exposure in colon tissue and colon contents in TNBS studies; format: in vivo, rat; conditions: TNBS rats, LC-MS/MS, LLOQ=2.6 nM
Method: Rats were deprived of food for 24 h prior to induction of colitis by intrarectal installation of TNBS 48 mg/kg (Sigma Aldrich; Raleigh, NC) in 50% ethanol on Day 0. All dose groups (n = approximately 10/group; up to 3 separate experiments) received TNBS, except negative controls, which received only water (n = 4). Rats were weighed daily. Euthanasia by overexposure to isoflurane occurred on Day 7. Following euthanasia, blood was collected retro-orbitally into serum separator microtainer tubes (Becton Dickinson; Franklin Lakes, NJ), centrifuged (2–3 min at 4 °C, 14,000 RPM), and stored at − 80 °C. Additionally, the whole colon was excised, measured, and photographed, and then cut open to allow for collection of the contents, which were weighed and flash frozen. After removal of the contents, colons were weighed and flash frozen. […] Colon weight/length ratio was calculated.
Table S3. […] All samples were analyzed using an LC-MS/MS method (LLOQ=2.6 nM).

T1 sequence (P29274 whole entry): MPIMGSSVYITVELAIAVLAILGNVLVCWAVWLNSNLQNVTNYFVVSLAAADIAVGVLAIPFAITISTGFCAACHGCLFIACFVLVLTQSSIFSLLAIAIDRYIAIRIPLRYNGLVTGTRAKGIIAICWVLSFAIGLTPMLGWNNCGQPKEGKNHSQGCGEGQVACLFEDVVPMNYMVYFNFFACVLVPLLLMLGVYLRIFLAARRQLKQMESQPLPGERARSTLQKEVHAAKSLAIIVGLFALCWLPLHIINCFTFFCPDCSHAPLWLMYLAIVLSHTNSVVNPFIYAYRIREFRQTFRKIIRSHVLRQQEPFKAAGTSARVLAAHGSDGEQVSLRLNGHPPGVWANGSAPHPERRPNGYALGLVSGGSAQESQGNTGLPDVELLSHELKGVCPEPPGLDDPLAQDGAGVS
T4 sequence (P28223 whole entry): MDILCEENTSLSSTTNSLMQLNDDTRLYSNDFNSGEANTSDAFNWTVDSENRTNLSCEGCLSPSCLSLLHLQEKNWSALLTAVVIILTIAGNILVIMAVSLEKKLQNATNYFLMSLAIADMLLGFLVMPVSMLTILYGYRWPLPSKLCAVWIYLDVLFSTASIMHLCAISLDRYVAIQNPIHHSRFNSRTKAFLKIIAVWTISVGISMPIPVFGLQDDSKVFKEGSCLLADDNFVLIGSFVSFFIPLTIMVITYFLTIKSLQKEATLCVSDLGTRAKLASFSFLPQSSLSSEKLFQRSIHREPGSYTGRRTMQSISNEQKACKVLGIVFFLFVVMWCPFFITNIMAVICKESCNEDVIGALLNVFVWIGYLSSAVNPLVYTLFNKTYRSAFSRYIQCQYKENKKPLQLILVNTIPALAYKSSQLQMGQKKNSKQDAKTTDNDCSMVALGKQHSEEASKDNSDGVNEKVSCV

Structure (SMILES): CC(=O)NCCCC[C@@H]1NC(=O)[C@H](Cc2c[nH]c3c(C)cccc23)NC(=O)[C@H]([C@@H](C)O)NC(=O)[C@H](CC(N)=O)NC(=O)[C@@H](NC(C)=O)C(C)(C)SSC(C)(C)[C@@H](C(=O)N[C@@H](Cc2ccc(OCCN)cc2)C(=O)N[C@@H](Cc2ccc3ccccc3c2)C(=O)NC2(C(=O)N[C@@H](CCC(=O)O)C(=O)N[C@@H](CC(N)=O)C(=O)N[C@@H](Cc3cccnc3)C(=O)N(C)CC(N)=O)CCOCC2)NC1=O [JNJ-77242113, S^3,1,S^3,6-cyclo[N-acetyl-3-sulfanyl-L-valyl-L-asparaginyl-L-threonyl-7-methyl-L-tryptophyl-N^6-acetyl-L-lysyl-3-sulfanyl-L-valyl-O-(2-aminoethyl)-L-tyrosyl-3-(naphthalen-2-yl)-L-alanyl-4-aminooxan-4-carbonyl-L-α-glutamyl-L-asparaginyl-3-(pyridin-3-yl)-L-alanyl-N^2-methylglycinamide]]
- inhibition at 10 µM ([1]; 1st run, read-out: Percent inhibition of control ligand binding, A2A, 1st run): -8.7%
- inhibition at 10 µM ([1]; 2nd run, read-out: Percent inhibition of control ligand binding, A2A, 2nd run): -6.2%
- inhibition at 10 µM ([1]; mean of 2 runs, read-out: Percent inhibition of control ligand binding, A2A, Mean): -7.5%
- inhibition at 10 µM ([2]; 1st run, read-out: Percent inhibition of control ligand binding, α1A, 1st run): -4.6%
- inhibition at 10 µM ([2]; 2nd run, read-out: Percent inhibition of control ligand binding, α1A, 2nd run): 5.5%
- inhibition at 10 µM ([2]; mean of 2 runs, read-out: Percent inhibition of control ligand binding, α1A, Mean): 0.5%
- inhibition at 10 µM ([3]; 1st run, read-out: Percent inhibition of control ligand binding, CCK1 (CCKA), 1st run): -29.4%
- inhibition at 10 µM ([3]; 2nd run, read-out: Percent inhibition of control ligand binding, CCK1 (CCKA), 2nd run): -12.3%
- inhibition at 10 µM ([3]; mean of 2 runs, read-out: Percent inhibition of control ligand binding, CCK1 (CCKA), Mean): -20.8%
- inhibition at 10 µM ([4]; 1st run, read-out: Percent inhibition of control ligand binding, 5-HT2A, 1st run): 7%
- inhibition at 10 µM ([4]; 2nd run, read-out: Percent inhibition of control ligand binding, 5-HT2A, 2nd run): 3.3%
- inhibition at 10 µM ([4]; mean of 2 runs, read-out: Percent inhibition of control ligand binding, 5-HT2A, Mean): 5.1%
- Colon tissue concentration ([5]; 0.03 mg/kg/day oral, Study 2): BQL
- level at time molar ([5]; 0.1 mg/kg/day oral, Study 1, read-out: Colon content concentration): 0.41 µM
- level at time molar ([5]; 0.1 mg/kg/day oral, Study 1, read-out: Colon tissue concentration): 0.0128 µM
- level at time molar ([5]; 0.1 mg/kg/day oral, Study 2, read-out: Colon content concentration): 0.31 µM
- level at time molar ([5]; 0.1 mg/kg/day oral, Study 2, read-out: Colon tissue concentration): 0.0168 µM
- Colon tissue concentration ([5]; 0.1 mg/kg/day oral, Study 3): BQL
- level at time molar ([5]; 0.1 mg/kg/day oral, Study 3, read-out: Colon content concentration): 0.299 µM
- level at time molar ([5]; 0.3 mg/kg/day oral, Study 1, read-out: Colon tissue concentration): 0.0254 µM
- level at time molar ([5]; 1 mg/kg/day oral, Study 1, read-out: Colon content concentration): 3.34 µM
- level at time molar ([5]; 1 mg/kg/day oral, Study 2, read-out: Colon content concentration): 3.92 µM
- level at time molar ([5]; 1 mg/kg/day oral, Study 3, read-out: Colon content concentration): 3.19 µM
- level at time molar ([5]; 3 mg/kg/day oral, Study 1, read-out: Colon content concentration): 9.21 µM
- level at time molar ([5]; 3 mg/kg/day oral, Study 1, read-out: Colon tissue concentration): 0.333 µM
- level at time molar ([5]; 3 mg/kg/day oral, Study 2, read-out: Colon content concentration): 11.7 µM
- level at time molar ([5]; 3 mg/kg/day oral, Study 2, read-out: Colon tissue concentration): 0.468 µM
- level at time molar ([5]; 3 mg/kg/day oral, Study 3, read-out: Colon content concentration): 11 µM
- level at time molar ([5]; 3 mg/kg/day oral, Study 3, read-out: Colon tissue concentration): 0.268 µM
- level at time molar ([5]; male, Sprague-Dawley, rat, colon content, po, 0.03 mg/kg/day, 0.03 mg/kg/day oral, Study 2, read-out: Colon content concentration): 0.0901 µM
- level at time molar ([5]; male, Sprague-Dawley, rat, colon content, po, 0.3 mg/kg/day, 0.3 mg/kg/day oral, Study 1, read-out: Colon content concentration): 0.973 µM
- level at time molar ([5]; male, Sprague-Dawley, rat, colon content, po, 0.3 mg/kg/day, 0.3 mg/kg/day oral, Study 2, read-out: Colon content concentration): 1.05 µM
- level at time molar ([5]; male, Sprague-Dawley, rat, colon content, po, 0.3 mg/kg/day, 0.3 mg/kg/day oral, Study 3, read-out: Colon content concentration): 1.68 µM
- level at time molar ([5]; male, Sprague-Dawley, rat, colon content, po, 10 mg/kg/day, 10 mg/kg/day oral, Study 2, read-out: Colon content concentration): 38.7 µM
- level at time molar ([5]; male, Sprague-Dawley, rat, colon tissue, po, 0.3 mg/kg/day, 0.3 mg/kg/day oral, Study 2, read-out: Colon tissue concentration): 0.0475 µM
- level at time molar ([5]; male, Sprague-Dawley, rat, colon tissue, po, 0.3 mg/kg/day, 0.3 mg/kg/day oral, Study 3, read-out: Colon tissue concentration): 0.0234 µM
- level at time molar ([5]; male, Sprague-Dawley, rat, colon tissue, po, 1 mg/kg/day, 1 mg/kg/day oral, Study 1, read-out: Colon tissue concentration): 0.0843 µM
- level at time molar ([5]; male, Sprague-Dawley, rat, colon tissue, po, 1 mg/kg/day, 1 mg/kg/day oral, Study 2, read-out: Colon tissue concentration): 0.168 µM
- level at time molar ([5]; male, Sprague-Dawley, rat, colon tissue, po, 1 mg/kg/day, 1 mg/kg/day oral, Study 3, read-out: Colon tissue concentration): 0.0832 µM
- level at time molar ([5]; male, Sprague-Dawley, rat, colon tissue, po, 10 mg/kg/day, 10 mg/kg/day oral, Study 2, read-out: Colon tissue concentration): 1.41 µM
